Measurements reported in paper PMC9995496, “A screen for MeCP2-TBL1 interaction inhibitors using a luminescence-based assay” (Scientific Reports, 2023).
Where a name gives a salt, the structure may show the parent alone.

What follows are molecules tested on PRKACA-PRKAR2A interaction (SmBiT-PRKACA / LgBiT-PRKAR2A), protein kinase A. Details: counter-screen for NanoLuc interference, 0.5 h, 20 µM, inhibitor, Inh (PKA).
Design: NanoLuc complementation counter-screen in cell extract, PRKACA with PRKAR2A, loss of luminescence, detects NanoLuc interference

Inh (PKA) [%]	SMILES
0.7637	Cn1c(=O)cc(N2CCC[C@@H](N)C2)n(Cc2ccccc2C#N)c1=O [UM0141676:01, Alogliptin (SYR-322)]
2.404	COC(=O)N[C@H](C(=O)N[C@@H](Cc1ccccc1)[C@@H](O)CN(Cc1ccc(-c2ccccn2)cc1)NC(=O)[C@@H](NC(=O)OC)C(C)(C)C)C(C)(C)C [UM0141677:01, Atazanavir sulfate (BMS-232632-05)]
1.233	C[C@H]1c2cccc(O)c2C(=O)C2=C(O)[C@]3(O)C(=O)C(C(N)=O)=C(O)[C@@H](N(C)C)[C@@H]3[C@@H](O)[C@@H]21 [UM0141681:01, Doxycycline hyclate]
17.98	Cc1cc(Nc2cc(N3CCN(C)CC3)nc(/C=C/c3ccccc3)n2)n[nH]1 [UM0141724:01, ENMD-2076 L-(+)-Tartaric acid]
15.95	Cc1cc(Nc2cc(N3CCN(C)CC3)nc(/C=C/c3ccccc3)n2)n[nH]1 [UM0141725:01, ENMD-2076]
-4.37	C[C@@H]1CCN(C(=O)CC#N)C[C@@H]1N(C)c1ncnc2[nH]ccc12 [UM0141728:01, Tofacitinib (CP-690550) Citrate]

Same assay, conditions: counter-screen for NanoLuc interference; 0.5 h, 20 µM; inhibitor

Inh (PKA) [%]	SMILES
0.7818	N#C[C@@H]1CCCN1C(=O)CNC12CC3CC(CC(O)(C3)C1)C2 [UM0141675:01, Vildagliptin (LAF-237)]
0.03588	CNC(=O)[C@@H](NC(=O)[C@H](CC(C)C)[C@H](O)C(=O)NO)C(C)(C)C [UM0141678:01, Marimastat]
-1.568	CNC(=O)[C@H](Cc1c[nH]c2ccccc12)NC(=O)[C@@H](CC(=O)NO)CC(C)C [UM0141679:01, GM 6001]
15.79	CCCC(C)NC(=O)c1ccc(Cl)c(Cl)c1 (centres unmarked) [UM0141680:01, NSC 405020]
8.06	C=CCNC1=C2C[C@@H](C)C[C@H](OC)[C@H](O)[C@@H](C)/C=C(\C)[C@H](OC(N)=O)[C@@H](OC)/C=C\C=C(/C)C(=O)NC(=CC1=O)C2=O [UM0141682:01, 17-AAG (KOS953)]
8.919	CC(C)c1cc(C(=O)N2Cc3ccc(CN4CCN(C)CC4)cc3C2)c(O)cc1O [UM0141683:01, AT13387]
15.87	CCNC(=O)c1noc(-c2cc(C(C)C)c(O)cc2O)c1-c1ccc(CN2CCOCC2)cc1 [UM0141684:01, AUY922 (NVP-AUY922)]
2.432	COc1c(C)cnc(Cn2cnc3c(Cl)nc(N)nc32)c1C [UM0141685:01, BIIB021]
5.017	COC1=C2C[C@@H](C)C[C@H](OC)[C@H](O)[C@@H](C)/C=C(\C)[C@H](OC(N)=O)[C@@H](OC)/C=C\C=C(/C)C(=O)NC(=CC1=O)C2=O [UM0141686:01, Geldanamycin]
8.876	CC1(C)CC(=O)c2c(C(F)(F)F)nn(-c3ccc(C(N)=O)c(N[C@H]4CC[C@H](OC(=O)CN)CC4)c3)c2C1 [UM0141688:01, PF-04929113 (SNX-5422)]
12.62	CC1(C)CC(=O)c2c(C(F)(F)F)nn(-c3ccc(C(N)=O)c(N[C@H]4CC[C@H](O)CC4)c3)c2C1 [UM0141689:01, SNX-2112]
4.266	Cn1c(N2CCCCS2(=O)=O)nc(C(=O)NCc2ccc(F)cc2)c(O)c1=O [UM0141690:01, BMS-707035]
4.883	COc1cc2c(cc1Cc1cccc(Cl)c1F)c(=O)c(C(=O)O)cn2[C@H](CO)C(C)C [UM0141691:01, Elvitegravir (GS-9137)]
3.571	CCN1C[C@H](C)n2c(c(O)c3c(=O)n(Cc4ccc(F)c(Cl)c4)nc(C(=O)NC)c32)C1=O [UM0141692:01, MK-2048]
1.324	Cc1nnc(C(=O)NC(C)(C)c2nc(C(=O)NCc3ccc(F)cc3)c(O)c(=O)n2C)o1 [UM0141693:01, Raltegravir (MK-0518)]
3.965	C[C@@H]1CCO[C@H]2Cn3cc(C(=O)NCc4ccc(F)cc4F)c(=O)c(O)c3C(=O)N12 [UM0141694:01, S/GSK1349572]
1.949	O=C(CCCCCCNC(=O)c1cnc(N(c2ccccc2)c2ccccc2)nc1)NO [UM0141695:01, Rocilinostat (ACY-1215)]
5.263	Nc1ccccc1NC(=O)c1ccc(CNc2nccc(-c3cccnc3)n2)cc1 [UM0141696:01, Mocetinostat (MGCD0103, MG0103)]
2.58	Cn1cc(CNCC2CCN(c3ncc(C(=O)NO)cn3)CC2)c2ccccc21 [UM0141697:01, JNJ-26481585]

Inh (PKA) [%]	SMILES
4.873	COc1ccc(Cn2ccc3ccc(C(=O)NO)cc32)cc1 [UM0141698:01, PCI-34051]
11.72	C#Cc1cccc(Nc2ncnc3cc(OC)c(OCCCCCCC(=O)NO)cc23)c1 [UM0141699:01, CUDC-101]
1.847	CCN(CC)Cc1ccc2cc(COC(=O)Nc3ccc(C(=O)NO)cc3)ccc2c1 [UM0141700:01, ITF2357 (Givinostat)]
48.72	Cn1cc(/C=C/C(=O)c2cccc(F)c2)cc1/C=C/C(=O)NO [UM0141701:01, MC1568]
1.422	O=C(/C=C/c1cccc(S(=O)(=O)Nc2ccccc2)c1)NO [UM0141702:01, Belinostat (PXD101)]
0.8331	CN(C)Cc1c(C(=O)NCCOc2ccc(C(=O)NO)cc2)oc2ccccc12 [UM0141704:01, PCI-24781 (CRA-024781)]
3.4	O=C(/C=C/c1ccc(CN(CCO)CCc2c[nH]c3ccccc23)cc1)NO [UM0141707:01, LAQ824 (NVP-LAQ824,Dacinostat)]
2.219	CC(C)[C@H](C(=O)Nc1ccc(C(=O)NO)cc1)c1ccccc1 [UM0141708:01, AR-42 (OSU-HDAC42)]
1.639	CN(C)c1ccc(C(=O)NCCCCCCC(=O)NO)cc1 [UM0141709:01, M344]
1.101	COc1cc2c(Nc3ccc(NC(=O)c4ccccc4)cc3)ncnc2cc1OCCCN1CCOCC1 [UM0141710:01, ZM 447439]
70.21	O=C(O)c1ccc(Nc2ncc3c(n2)-c2ccc(Cl)cc2C(c2c(F)cccc2F)=NC3)cc1 [UM0141711:01, MLN8054]
15.42	Nc1nc(Nc2ccc(S(N)(=O)=O)cc2)nn1C(=O)c1c(F)cccc1F [UM0141712:01, JNJ-7706621]
4.91	CO[C@@H](C(=O)N1Cc2[nH]nc(NC(=O)c3ccc(N4CCN(C)CC4)cc3)c2C1)c1ccccc1 [UM0141713:01, Danusertib (PHA-739358)]
10.96	O=C(Nc1c[nH]nc1-c1nc2ccc(CN3CCOCC3)cc2[nH]1)NC1CC1 [UM0141714:01, AT9283]
53.45	CCS(=O)(=O)Nc1ccc2c(c1)/C(=C(/Nc1ccc(CN3CCCCC3)cc1)c1ccccc1)C(=O)N2 [UM0141715:01, Hesperadin]
63.02	Cc1csc(-c2nnc(Nc3ccc(Oc4ncccc4-c4ccnc(N)n4)cc3)c3ccccc23)c1 [UM0141716:01, AMG-900]
44.53	O=C(O)[C@]1(Cc2cccc(Nc3nccs3)n2)CC[C@@H](Oc2cccc(Cl)c2F)CC1 [UM0141717:01, MK-5108 (VX-689)]
29.21	O=C(Nc1cccc(Cl)c1)Nc1ncc(CCNc2ncnc3ccsc23)s1 [UM0141718:01, SNS-314 Mesylate]
7.851	CCc1cccc(CC)c1NC(=O)N1Cc2[nH]nc(NC(=O)c3ccc(N4CCN(C)CC4)cc3)c2C1 [UM0141719:01, PHA-680632]

Inh (PKA) [%]	SMILES
34.71	O=C(c1ccc(/C=C/c2n[nH]c3ccccc23)cc1)N1CCNCC1 [UM0141720:01, KW 2449]
28.15	CCS(=O)(=O)c1cccc(-c2cc(C(=O)NC3CCN(C)CC3)c(C)c3[nH]c4ncc(C)cc4c23)c1 [UM0141721:01, TAK-901]
23.62	Cc1nc(N)sc1-c1ccnc(Nc2ccc(N3CCOCC3)cc2)n1 [UM0141722:01, CYC116]
22.92	CCN1CCN(C(=O)Cc2ccc(Nc3ncc(F)c(Nc4ccc(C(=O)Nc5ccccc5Cl)cc4)n3)cc2)CC1 [UM0141723:01, Aurora A Inhibitor I]
76.32	CN(C)c1ccc(-c2nc3ncc(Cl)c(N4CCN(CC(=O)Nc5nccs5)CC4)c3[nH]2)cc1 [UM0141726:01, CCT129202]
46.74	Cc1cc(CN2CCN(c3c(Br)cnc4nc(-c5ccc(N6CCN(C)CC6)cc5)[nH]c34)CC2)no1 [UM0141727:01, CCT137690]
28.21	C[C@H](NC(=O)/C(C#N)=C/c1cccc(Br)n1)c1ccccc1 [UM0141729:01, WP1066]
36.26	Cc1cnc(Nc2ccc(N3CCN(C)CC3)cc2)nc1Nc1cccc(S(=O)(=O)NC(C)(C)C)c1 [UM0141731:01, TG101209]
32.81	CN1CCN(c2cccc(Nc3nc4c(-c5ccc(S(C)(=O)=O)cc5)cccn4n3)c2)CC1 [UM0141732:01, CEP-33779]
4.215	CCn1c(C(=O)N(C2CC2)C2CC2)cc2c3c(ncn3C)c(Nc3cc(C)n(C)n3)nc21 [UM0141734:01, BMS-911543]
5.771	Cn1ncnc1[C@H]1c2n[nH]c(=O)c3cc(F)cc(c23)N[C@@H]1c1ccc(F)cc1 [UM0141735:01, BMN 673]
1.39	NC(=O)c1ccc(I)c([N+](=O)[O-])c1 [UM0141736:01, Iniparib (BSI-201)]
2.033	CN(C)Cc1ccc(-c2nc3cccc4c3n2CCNC4=O)cc1 [UM0141737:01, AG-14361]
3.156	CN(C)CC(=O)Nc1ccc2[nH]c(=O)c3ccccc3c2c1 [UM0141738:01, PJ34 hydrochloride]
5.639	NC(=O)c1cccc2[nH]c(-c3ccc([C@@H]4CCCN4)cc3F)nc12 [UM0141739:01, A-966492]
15.76	O=C(COc1cccc2c(=O)[nH]ccc12)c1ccccc1 [UM0141740:01, UPF 1069]
1.514	COC1CCN(C(=O)c2cc(Cc3n[nH]c(=O)c4ccccc34)ccc2F)CC1 [UM0141741:01, AZD2461]
3.83	CC(C)N(CCCNC(=O)Nc1ccc(C(C)(C)C)cc1)C[C@H]1O[C@@H](n2cc(Br)c3c(N)ncnc32)[C@H](O)[C@@H]1O [UM0141743:01, SGC 0946]
